Assays:
[1] = system: SIVmac251; test: Blood CD4+ lymphocyte count in SIVmac251-infected Rhesus monkey; assay type: in vivo
Text: They were fed with commercial popped feeds.
Measurement of blood CD4^+ count: Blood samples were drawn from the animals before infection and 14, 28, 42 and 60 days after infection with SIVmac251 Ficoll lymphocyte separation fluid was adopted to isolate the peripheral lymphocytes. After tagging the anti-CD4 monoclonal antibody with direct fluorescence, the cells were counted on FACS machine to obtain the CD4^+ percentage. In combination with WBC count with DC of routine blood examination, the total count of blood CD4^+ lymphocytes was calculated. • 1.

[2] = system: SIVmac251; test: Plasma viral load in SIVmac251-infected Rhesus monkey; settings: within the dosing range
Text: Experiment animals: 5 females and 5 males Rhesus monkey as experimental animal with 4.5-5.5 Kg/each for a total of 10 were used, purchased from Primate Breeding Center, Research Institute of Experimental Animals, Chinese Academy of Medical Sciences. They were fed with commercial popped feeds. No abnormal physical examination was found before the experiment. Potential infections with SIV, SRV Type D and STLV-I were excluded by the serum IFA antibody test.
Each animal was intravenously infected with 1 ml virus solution equivalent to 3MID100 viral load.
Within each group, there were 3-4 animals with equal females and males. […] No drug treatment was offered for SIVmac251 infection control group.
Observation pre- and post-infection: Besides other pre-infection physical examinations, body weight and blood-drawing were made for each monkey (conducting all parameter tests). […] At the pre-determined timepoints, blood was drawn for the monkey to measure the plasma viral titer, blood CD4^+ count and antibody titre. […]
Plasma virus isolation: After the animals were infected with SIVmac251, to collect the blood samples were collected respectively at Days 7, 11, 14, 21, 28, 42, 60 and the plasma were separated by heparin anti-clotting. […] The viral titre was chosen for the sample with the lowest inoculation quantity but showing the typical patterns of cellular confluence. […]

## Cc1cn([C@H]2C[C@H](N=[N+]=[N-])[C@@H](CO)O2)c(=O)[nH]c1=O [AZT]
[1]; 2 and 4 weeks post-infection
  CD4 cells spared of the viral attacks (protected): 35%
[1]; 2 week infection
  CD4+ lymphocytes: 714.51
  CD4+ lymphocytes, Difference with control: 187.21
  CD4+ lymphocytes, Difference with control (%): (35.5%)
[1]; 4 week
  CD4+ lymphocytes: 540.57
  CD4+ lymphocytes, Difference with control: 137.96
  CD4+ lymphocytes, Difference with control (%): (34.27%)
[1]; 6 week
  CD4+ lymphocytes: 543.31
  CD4+ lymphocytes, Difference with control: 83.24
  CD4+ lymphocytes, Difference with control (%): (18.09%)
[1]; 8 w
  CD4+ lymphocytes: 530.95
  CD4+ lymphocytes, Difference with control (%): (43.0%)
[1]; Pre-experiment
  CD4+ lymphocytes: 959.86
[2]
  inhibition rate upon SIV: over 90%
